# Values joined by “and” are separate entries in the source; they are usually repeats but may differ in a detail not shown here. Equal values may be shown once. Read-outs that look alike come from different tables or passages of the source.
# What was measured:
# locust neuron nAChR = assay: Whole-cell patch-clamp of locust mushroom body neurons, ACh-evoked currents; assay type: cell-based, Schistocerca gregaria; settings: for Fold increase in potency vs PhTX-343, 1 s current / Fold increase in potency vs PhTX-343, peak current: IC50 PhTX-343 / IC50 analogue; for Cells in which potentiation of the ACh response was observed: co-application of 0.01 and 0.1 μM
# Procedure: Neuronal cells were harvested through dissection of adult desert locusts (Shistocerca gregaria) purchased from livefoods.com. Following 10 min of cold anaesthesia at 4 °C, the locusts were submerged in 70% ethanol and their heads removed by decapitation with dissection scissors. The front of the head capsule was removed to expose the mushroom body of the brain, which was extracted, cut into small pieces, and placed into a 1 mL Eppendorf tube with 200 μL of Rinaldi’s saline (135 mM NaCl, 25 mM KCl, 0.4 mM NaHCO3, 0.5 mM glucose, and 5 mM HEPES adjusted to pH 7.2 with NaOH) containing 0.5 mg/mL dispase and 2 mg/mL collagenase. After 15 min incubation at 36.5 °C, neurons were centrifuged at 800× g for 1 min at room temperature to form a pellet. The supernatant was removed and replaced with 200 μL locust culture medium (5:4 − DMEM + 10% FCS + 2 mM Gln: Schneider’s insect medium + 10 IU/mL penicillin + 20 μg/mL streptomycin). A total of 200 μL of culture medium was gently pipette-mixed with the pellet to create a suspension of cells, which were spread over poly-L-lysine-coated glass coverslips (5 × 20 mm) in 35 mm Petri dishes containing 2 mL locust culture medium. Petri dishes were incubated overnight at 36.5 °C in a 5% CO2 atmosphere.
# Experiments were conducted 16–24 h after neuron dissociation. Coverslips covered in locust neurons were placed into a patch-clamp perfusion chamber, and were then constantly perfused with locust saline solution (180 mM NaCl, 10 mM KCl, 2 mM CaCl2, 10 mM HEPES, and pH 7.2 with NaOH). Borosilicate glass patch pipettes (1B150F-4, World Precision Instruments, Hertfordshire, UK), pulled to ~5–10 MΩ with a P-97 Flaming/Brown micropipette puller (Sutter Instrument Co., Novato, CA, USA), were filled with caesium pipette solution (140 mM CsCl, 1 mM CaCl2, 1 mM MgCl2, 11 mM EGTA, and 5 mM HEPES, pH 7.2) and placed in a patch pipette holder mounted on the patch-clamp amplifier head stage. Patch-clamped cells were clamped at a holding potential (VH) of −75 mV. Whole-cell currents were monitored by using an Axopatch 200A patch-clamp amplifier (Molecular Devices, San Jose, CA, USA) and recorded with WinWCP V4.5.7 software (Dr John Dempster, Institute of Pharmacy & Biomedical Sciences, University of Strathclyde, Glasgow, UK). Test compounds were focally applied to cells as 1 s pulses using a DAD-12 superfusion system (ALA Scientific Instruments, Farmingdale, NY, USA). Between each application of test compounds, clamped cells were washed for 1 min with locust saline. […]
# A total of 100 μM acetylcholine (ACh) was applied to cells twice prior to (control) and once after the co-application of 100 μM ACh and PhTX analogue. Peak current and current after 1 s of application were measured using WinWCP, and then the percentage of control response values were generated by normalising responses to ACh + PhTX co-application to the ACh-only control response. GraphPad Prism 9 (GraphPad Software, San Diego, CA, USA) was used for data analysis, graph plotting, curve fitting, and statistical analysis. To estimate the ACh EC50, concentration–response data were fit by the Hill equation:(1) % maximum response=100/(1+10^(LogEC50−X)S) where X is the log of the ACh concentration and S is the Hill slope. Concentration–inhibition curves were generated by plotting the mean and standard error of the normalised current measurements against log antagonist concentration, and then IC50 values were estimated by fitting a non-linear regression curve by using the equation:(2) % control response=100/(1+10^(X−LogIC50)S) where X is the log of the concentration of the PhTX analogue and S is the Hill slope.
# rat α4β2 nAChRs = settings: rat subtype α4β2; cited from earlier work
# rat α3β4 nAChRs = settings: rat subtype α3β4; cited from earlier work
# human muscle-type nAChRs = system: human muscle-type nAChRs; parameters: method as in PMID 16892364; settings: cited from earlier work
# [1] = inhibition of 100 μM ACh-evoked current after 1 s of activation, VH −75 mV, read-out: IC50 (95% CI), 1 s Current
# [2] = inhibition of 100 μM ACh-evoked peak current, VH −75 mV, read-out: IC50 (95% CI), Peak Current
# [3] = at both 0.01 and 0.1 μM, cells showing potentiation, 100 μM ACh
smiles,measurement,setting,value
CCCC(=O)N[C@@H](CC1CCCCC1)C(=O)NCCCCCCCCCCCCN [Cha-PhTX-12],"Fold increase in potency vs PhTX-343, 1 s current",locust neuron nAChR,471 fold
same,"Fold increase in potency vs PhTX-343, peak current",locust neuron nAChR,> 5000 fold
same,IC50,"locust neuron nAChR; at −75 mV (abstract; 1 s current), read-out: IC50",1.71 nM
same,IC50,locust neuron nAChR; [1],1.7 nM
same,IC50,locust neuron nAChR; [2],7.5 nM
"CN1CCC[C@H]1c1cccnc1 [nicotine, reference compound]",Whole-cell current response compared with 100 μM ACh,"locust neuron nAChR; 100 μM, same neuron",smaller than that seen for ACh
CCCC(=O)N[C@@H](CC1CCCCC1)C(=O)NCCCNCCCCNCCCN [Cha-PhTX-343],"Potentiation, % of the ACh control response, peak and 1 s current similar","locust neuron nAChR; 0.01 μM, cells showing potentiation, 100 μM ACh",about 145%
same,"Potentiation, % of the ACh control response, peak and 1 s current similar","locust neuron nAChR; 0.1 μM, cells showing potentiation, 100 μM ACh",~125%
same,"Fold increase in potency vs PhTX-343, 1 s current",locust neuron nAChR,1.8 fold
same,"Fold increase in potency vs PhTX-343, peak current",locust neuron nAChR,23 fold
same,Cells in which potentiation of the ACh response was observed,locust neuron nAChR,12 out of 22
same,IC50,locust neuron nAChR; [1],440 nM
same,IC50,locust neuron nAChR; [2],1750 nM
same,IC50,rat α4β2 nAChRs,low nanomolar range
same,IC50,rat α3β4 nAChRs,low nanomolar range
same,Times more potent than PhTX-12,human muscle-type nAChRs,> 10 times
same,Times more potent than PhTX-343,human muscle-type nAChRs,> 100 times
"CCCC(=O)N[C@@H](Cc1ccc(O)cc1)C(=O)NCCCNCCCCNCCCN [PhTX-343, philanthotoxin-343, reference compound]","Mean potentiation, % of the ACh control response, 1 s current",locust neuron nAChR; [3],~300%
same,"Mean potentiation, % of the ACh control response, peak current",locust neuron nAChR; [3],around 200%
same,Cells in which potentiation of the ACh response was observed,locust neuron nAChR,8 out of 23
same,IC50,locust neuron nAChR; [1],800 nM
same,IC50,locust neuron nAChR; [2],39800 nM
"COc1cc2c3cc1Oc1cc(ccc1O)C[C@@H]1c4c(cc(OC)c(O)c4Oc4ccc(cc4)C[C@@H]3N(C)CC2)CC[N+]1(C)C [d-tubocurarine, reference compound]",IC50,"locust neuron nAChR; co-applied 0.1 to 100 μM with 100 μM ACh, n = 11, read-out: IC50 for inhibition of 100 μM ACh current",2730 nM
same,Inhibition at the highest concentration,locust neuron nAChR; highest concentration (100 μM) co-applied with 100 μM ACh,complete inhibition
"CC(=O)OCC[N+](C)(C)C [ACh, acetylcholine]",EC50,"locust neuron nAChR; peak response, n = 11, read-out: EC50 of ACh-evoked whole-cell current",20300 nM
CCCC(=O)N[C@@H](Cc1ccc(O)cc1)C(=O)NCCCCCCCCCCCCN [PhTX-12],"Fold increase in potency vs PhTX-343, 1 s current",locust neuron nAChR,6.2 fold and ~ 6 fold
same,"Fold increase in potency vs PhTX-343, peak current",locust neuron nAChR,34 fold
same,IC50,locust neuron nAChR; [1],130 nM
same,IC50,locust neuron nAChR; [2],1170 nM

# From paper PMC8622278, “The Effects of Structural Alterations in the Polyamine and Amino Acid Moieties of Philanthotoxins on Nicotinic Acetylcholine Receptor Inhibition in the Locust, Schistocerca gregaria” (Molecules, 2021)
